# Test results as given in publication PMC5673977, “Transport Deficiency Is the Molecular Basis of Candida albicans Resistance to Antifungal Oligopeptides” (Frontiers in Microbiology, 2017).
# Read-outs that look alike come from different tables or passages of the source. Where a SMILES comes first, the peptide text is derived from it. [ ]: non-standard residue; d: D form. Nva = CCC[C@H](N)C(=O)O
# Columns and labels:
# [1] = tested on: C. albicans SC5314; assay: Initial peptide uptake rate; type: cell-based, Candida albicans; conditions: SC 5314; cells grown in YNB-SG; 50 mM potassium phosphate buffer (pH 5.0 or 6.5) + 1% glucose, 30°C, 100 μM peptide, residual peptide by TNBS A420, slope 0- to 10-min
# Method: (§1) Yeast cells grown exponentially in the YNB-SG medium were harvested by centrifugation (3000 ×g, 5 min), washed with 50 mM potassium phosphate buffer (pH 5.0 or 6.5), and suspended in the same buffer containing 1% glucose, to a final cell density corresponding to A660 ≅ 1.0. The cell suspension was incubated at 30°C. After 10 min, an oligopeptide solution was added, to give a final concentration of 100 μM. At that moment and at 5 min intervals thereafter, 2 mL samples of the cell suspension were withdrawn, immediately filtered through the Whatman GF/A filters and the filtrates were used to determine the residual peptide concentration. Then, the 1 mL portions of the filtrates were taken and combined with 1.25 mL aliquots of a solution containing 4% Na2B4O7 × 10 H2O and 0.8 mg mL^-1 of 2,4,6-trinitrobenzenesulfonate. The reaction was carried out at 37°C for 30 min. The A420 values were measured and the peptide concentration was read from the appropriate standard curve. Data were plotted as nanomoles of an oligopeptide, taken up by 1 mg (dry weight) of cells versus time. The initial uptake velocities were determined from the slopes of the linear part of the curves, in the 0- to 10-min region.
# [2] = tested on: C. albicans opt1Δ; assay: Initial peptide uptake rate; type: cell-based, Candida albicans; conditions: 50 mM potassium phosphate buffer (pH 5.0 or 6.5) + 1% glucose, 30°C, 100 μM peptide, TNBS A420, slope 0- to 10-min
# Method: as §1
# [3] = tested on: C. albicans opt1–opt5Δ ptr2Δ ptr22Δ; assay: Initial peptide uptake rate; type: cell-based, Candida albicans; conditions: 50 mM potassium phosphate buffer (pH 5.0 or 6.5) + 1% glucose, 30°C, 100 μM peptide, TNBS A420, slope 0- to 10-min
# Method: as §1
# [4] = tested on: C. albicans opt1–opt5Δ; assay: Initial peptide uptake rate; type: cell-based, Candida albicans; conditions: 50 mM potassium phosphate buffer (pH 5.0 or 6.5) + 1% glucose, 30°C, 100 μM peptide, TNBS A420, slope 0- to 10-min
# Method: as §1
# [5] = tested on: C. albicans opt2Δ opt3Δ; assay: Initial peptide uptake rate; type: cell-based, Candida albicans; conditions: 50 mM potassium phosphate buffer (pH 5.0 or 6.5) + 1% glucose, 30°C, 100 μM peptide, TNBS A420, slope 0- to 10-min
# Method: as §1
# [6] = tested on: C. albicans opt4Δ; assay: Initial peptide uptake rate; type: cell-based, Candida albicans; conditions: 50 mM potassium phosphate buffer (pH 5.0 or 6.5) + 1% glucose, 30°C, 100 μM peptide, TNBS A420, slope 0- to 10-min
# Method: as §1
# [7] = tested on: C. albicans opt5Δ; assay: Initial peptide uptake rate; type: cell-based, Candida albicans; conditions: 50 mM potassium phosphate buffer (pH 5.0 or 6.5) + 1% glucose, 30°C, 100 μM peptide, TNBS A420, slope 0- to 10-min
# Method: as §1
# [8] = tested on: C. albicans ptr2Δ ptr22Δ; assay: Initial peptide uptake rate; type: cell-based, Candida albicans; conditions: 50 mM potassium phosphate buffer (pH 5.0 or 6.5) + 1% glucose, 30°C, 100 μM peptide, TNBS A420, slope 0- to 10-min
# Method: as §1
# [9] = tested on: peptidases present in cytoplasmic extracts obtained from NF1, NF2, NF3, LNF1, LNF2, LNF3, and SC 5314 cells; assay: Peptide cleavage rate in cell-free extract (Cd-ninhydrin); type: in vitro ADME, Candida albicans; conditions: pH 6.5, 30°C
# Method: Yeast cells from the overnight culture in YNB-SG were harvested by centrifugation and washed with cold 25 mM potassium phosphate buffer (pH 6.5). Cells were then suspended in a minimal amount of the buffer and disrupted with the French press. The resulting suspension was centrifuged (35,000 ×g, 4°C, 45 min), and the supernatant was used as a cell-free extract for the determination of peptide cleavage rates.
# The incubation mixtures, consisting of 10 mL of a 200 mM peptide solution in 50 mM potassium phosphate buffer (pH 6.5) and 2 mL of an appropriately diluted crude extract (final protein concentration, 0.1–0.5 mg mL^-1), were incubated at 30°C. At 5 min intervals, 2 mL aliquots were withdrawn and heated at 100°C for 3 min. The resulting suspensions were centrifuged to remove the protein precipitates and the concentration of free amino acids in the supernatant was determined by the Cd-ninhydrin procedure ([Doi et al., 1981]).
# [10] = tested on: C. albicans isolates NF1-3 and LNF1-3; assay: Initial peptide uptake rate by isolates resistant to F2/F3; type: cell-based, Candida albicans; conditions: all six isolates NF1-3, LNF1-3; Figure 4
# Method: as §1
# It is therefore clear that the diminished sensitivity of all six isolates to F2 and F3 was due to the reduced uptake, most likely by permease(s) of the PTR system.
# [11] = tested on: C. albicans SC5314; type: cell-based, Candida albicans; conditions: SC 5314
# Method: (§2) Strains were grown at 30°C in YPD medium (1% yeast extract, 2% peptone, and 2% glucose) and stored on YPD plates containing 2% agar. Susceptibility testing was performed in YPD and other three media: (a) RPMI-1640 w/o sodium bicarbonate, with L-glutamine + 2% glucose + 3.45% MOPS, pH adjusted to 7.0; (b) YNB-AS—Yeast Nitrogen Base w/o amino acids (contains ammonium sulfate 5 g L^-1) + 2% glucose; (c) YNB-SG—Yeast Nitrogen Base w/o amino acids and ammonium sulfate + 2% glucose + 0.2 g L^-1 sodium glutamate. In their solid version, used for the mutant generation and isolation, YNB-AS and YNB-SG contained 2% agar.
# (§3) The in vitro growth inhibitory activity of antifungals was quantified by determination of minimal inhibitory concentration (MIC) values by the serial twofold dilution method, using the 96-well microtiter plates in three media: buffered RPMI-1640, YNB-AS, and YNB-SG. Conditions of the RPMI-1640-based assay were the same as outlined in the CLSI recommendations ([Clinical Laboratory Standards Institute, 2008]), except for the end-point readout that was done by spectrophotometric determination of cell density at 531 nm. Turbidity in individual wells was measured with a microplate reader (Victor^3; Perkin Elmer). MIC was defined as the lowest drug concentration that gave at least an 80% decrease in turbidity, relative to that of the drug-free growth control.
# (§4) The 96-well microtiter plates were also used for determination of in vitro growth inhibitory activity in YPD and YNB-based media. Individual wells were inoculated with 5 × 10^3 cfu mL^-1 of C. albicans cells from the overnight culture in YPD medium. The inoculated plates were incubated 37°C for 24 h and then turbidity was measured with a microplate reader at 531 nm, as described above for the RPMI-1640-based assay.
# [12] = tested on: C. albicans opt1Δ; type: cell-based, Candida albicans; conditions: turbidity 531 nm, at least 80% decrease
# Method: as §2, §3, §4
# [13] = tested on: C. albicans opt1–opt5Δ ptr2Δ ptr22Δ; type: cell-based, Candida albicans; conditions: turbidity 531 nm, at least 80% decrease
# Method: as §2, §3, §4
# [14] = tested on: C. albicans opt1–opt5Δ; type: cell-based, Candida albicans; conditions: turbidity 531 nm, at least 80% decrease
# Method: as §2, §3, §4
# [15] = tested on: C. albicans opt2Δ opt3Δ; type: cell-based, Candida albicans; conditions: turbidity 531 nm, at least 80% decrease
# Method: as §2, §3, §4
# [16] = tested on: C. albicans opt4Δ; type: cell-based, Candida albicans; conditions: turbidity 531 nm, at least 80% decrease
# Method: as §2, §3, §4
# [17] = tested on: C. albicans opt5Δ; type: cell-based, Candida albicans; conditions: turbidity 531 nm, at least 80% decrease
# Method: as §2, §3, §4
# [18] = tested on: C. albicans ptr2Δ ptr22Δ; type: cell-based, Candida albicans; conditions: turbidity 531 nm, at least 80% decrease
# Method: as §2, §3, §4
# [19] = RPMI-1640 medium, MOPS pH 7.0, CLSI conditions
smiles,measurement,setting,value
"CCC[C@H](N)C(=O)N[C@@H](Cc1ccccc1)C(=O)N[C@@H](CCSC)C(=O)N[C@@H](CC(=O)O)C(=O)N1CCC[C@H]1C(=O)O [Peptide F2, Nva-FMDP] (H-[Nva]FMDP-OH)",Uptake rate ± SD,[1],4.83 ± 0.11 nmol min^-1 (mg dry weight)^-1
same,Uptake rate ± SD,[2],4.75 ± 0.09 nmol min^-1 (mg dry weight)^-1
same,Uptake rate ± SD,[3],<0.1 nmol min^-1 (mg dry weight)^-1
same,Uptake rate ± SD,[4],4.05 ± 0.18 nmol min^-1 (mg dry weight)^-1
same,Uptake rate ± SD,[5],4.80 ± 0.15 nmol min^-1 (mg dry weight)^-1
same,Uptake rate ± SD,[6],4.86 ± 0.14 nmol min^-1 (mg dry weight)^-1
same,Uptake rate ± SD,[7],4.78 ± 0.11 nmol min^-1 (mg dry weight)^-1
same,Uptake rate ± SD,[8],<0.1 nmol min^-1 (mg dry weight)^-1
same,"Velocity of proteolytic cleavage relative to F6, F7, and F11",[9],two to three times higher
same,Initial uptake rate relative to wild type SC5314 cells,[10],remarkably lower
"CC(C)[C@H](NC(=O)[C@H](Cc1c[nH]c2ccccc12)NC(=O)[C@H](Cc1ccccc1)NC(=O)[C@@H](NC(=O)[C@@H](NC(=O)[C@H](CCCCN)NC(=O)[C@@H](N)CCCCN)C(C)C)C(C)C)C(=O)N[C@@H](CCCCN)C(=O)N[C@@H](Cc1ccccc1)C(=O)N[C@@H](CCCCN)C(=O)O [Peptide P10, Lys-Lys-Val-Val-Phe-Trp-Val-Lys-Phe-Lys] (H-KKVVFWVKFK-OH)",MIC,"[11]; RPMI-1640 medium, MOPS pH 7.0, CLSI conditions, turbidity 531 nm, at least 80% decrease",64 µg/mL
same,MIC,[11]; YNB + L-Gln (0.3 g L^-1) pH 5.0,64 µg/mL
same,MIC,[11]; YNB + L-Gln (0.3 g L^-1) pH 7.0,64 µg/mL
same,MIC,[11]; YNB + amino acid mixture (composition as in RPMI-1640),64 µg/mL
same,MIC,"[11]; YNB-AS medium, 5 × 10^3 cfu mL^-1, 37°C, 24 h, turbidity 531 nm, at least 80% decrease",64 µg/mL
same,MIC,"[11]; YNB-SG medium, 5 × 10^3 cfu mL^-1, 37°C, 24 h, turbidity 531 nm, at least 80% decrease",64 µg/mL
same,MIC,[11]; growth medium YNB-SG (Table 6),64 µg/mL
same,MIC,[12]; [19],64 µg/mL
same,MIC,"[12]; YNB-AS medium, 37°C, 24 h",64 µg/mL
same,MIC,"[12]; YNB-SG medium, 37°C, 24 h",64 µg/mL
same,MIC,[13]; [19],64 µg/mL
same,MIC,"[13]; YNB-AS medium, 37°C, 24 h",64 µg/mL
same,MIC,"[13]; YNB-SG medium, 37°C, 24 h",64 µg/mL
same,MIC,[14]; [19],64 µg/mL
same,MIC,"[14]; YNB-AS medium, 37°C, 24 h",64 µg/mL
same,MIC,"[14]; YNB-SG medium, 37°C, 24 h",64 µg/mL
same,MIC,[15]; [19],64 µg/mL
same,MIC,"[15]; YNB-AS medium, 37°C, 24 h",64 µg/mL
same,MIC,"[15]; YNB-SG medium, 37°C, 24 h",64 µg/mL
same,MIC,[16]; [19],64 µg/mL
same,MIC,"[16]; YNB-AS medium, 37°C, 24 h",64 µg/mL
same,MIC,"[16]; YNB-SG medium, 37°C, 24 h",64 µg/mL
same,MIC,[17]; [19],64 µg/mL
same,MIC,"[17]; YNB-AS medium, 37°C, 24 h",64 µg/mL
same,MIC,"[17]; YNB-SG medium, 37°C, 24 h",64 µg/mL
same,MIC,[18]; [19],64 µg/mL
same,MIC,"[18]; YNB-AS medium, 37°C, 24 h",64 µg/mL
same,MIC,"[18]; YNB-SG medium, 37°C, 24 h",64 µg/mL
same,Uptake rate ± SD,[1],<0.1 nmol min^-1 (mg dry weight)^-1
same,Uptake rate ± SD,[2],<0.1 nmol min^-1 (mg dry weight)^-1
same,Uptake rate ± SD,[3],<0.1 nmol min^-1 (mg dry weight)^-1
same,Uptake rate ± SD,[4],<0.1 nmol min^-1 (mg dry weight)^-1
same,Uptake rate ± SD,[5],<0.1 nmol min^-1 (mg dry weight)^-1
same,Uptake rate ± SD,[6],<0.1 nmol min^-1 (mg dry weight)^-1
same,Uptake rate ± SD,[7],<0.1 nmol min^-1 (mg dry weight)^-1
same,Uptake rate ± SD,[8],<0.1 nmol min^-1 (mg dry weight)^-1
